What was measured:
Assay type in all cases: cell-based
[1] = biological target: T1, parathyroid cell Ca^2+ receptor (Homo sapiens, UniProt P41180); assay: [Ca2+]i (fura-2) in human parathyroid cells; design: increase in [Ca2+]i: dose or concentration left out as unconfirmed
T1 construct: Dissociated parathyroid cells were prepared from a parathyroid adenoma obtained by surgery from a patient with primary hyperparathyroidism; endogenous in cells; host or cells: primary human parathyroid cells from adenomatous or hyperplastic glands
T1 sequence (P41180 20-1078): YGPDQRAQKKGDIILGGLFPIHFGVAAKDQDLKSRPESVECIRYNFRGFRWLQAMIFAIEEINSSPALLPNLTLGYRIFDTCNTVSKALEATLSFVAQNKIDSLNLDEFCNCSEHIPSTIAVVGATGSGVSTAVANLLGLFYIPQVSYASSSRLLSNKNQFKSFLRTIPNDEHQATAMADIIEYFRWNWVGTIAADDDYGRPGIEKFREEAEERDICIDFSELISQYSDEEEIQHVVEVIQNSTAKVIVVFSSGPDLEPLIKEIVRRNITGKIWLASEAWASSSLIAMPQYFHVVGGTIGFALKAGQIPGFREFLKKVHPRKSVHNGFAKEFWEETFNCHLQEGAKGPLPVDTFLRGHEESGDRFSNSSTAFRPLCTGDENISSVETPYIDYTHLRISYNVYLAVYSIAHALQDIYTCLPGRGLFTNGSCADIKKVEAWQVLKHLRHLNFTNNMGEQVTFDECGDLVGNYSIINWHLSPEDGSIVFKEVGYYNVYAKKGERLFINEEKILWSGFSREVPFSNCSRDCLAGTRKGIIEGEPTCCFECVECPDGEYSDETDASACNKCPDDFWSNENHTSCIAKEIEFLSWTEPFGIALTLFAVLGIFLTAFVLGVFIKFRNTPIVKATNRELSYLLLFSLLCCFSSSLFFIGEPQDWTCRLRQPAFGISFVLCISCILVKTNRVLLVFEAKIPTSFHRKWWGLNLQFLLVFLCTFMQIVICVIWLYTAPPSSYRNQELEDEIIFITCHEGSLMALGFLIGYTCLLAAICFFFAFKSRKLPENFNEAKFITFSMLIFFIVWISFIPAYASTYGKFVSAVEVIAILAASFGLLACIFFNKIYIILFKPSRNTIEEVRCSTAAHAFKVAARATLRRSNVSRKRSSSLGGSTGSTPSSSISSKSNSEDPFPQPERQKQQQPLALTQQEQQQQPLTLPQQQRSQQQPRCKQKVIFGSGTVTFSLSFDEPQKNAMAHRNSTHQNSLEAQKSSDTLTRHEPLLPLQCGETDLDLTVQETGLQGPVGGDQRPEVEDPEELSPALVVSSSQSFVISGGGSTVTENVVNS
Description: Human parathyroid glands, obtained from patients undergoing surgical removal of parathyroid tissue for primary or uremic hyperparathyroidism (HPT), were treated similarly to bovine tissue. Glands were trimmed of excess fat and connective tissue and then minced with a fine scissors into approximate cubes of 2-3 mm. Dissociated parathyroid cells were prepared by collagenase digestion. Dissociated cells were then purified by centrifugation in Percoll buffer. The resultant parathyroid cell preparation was essentially devoid of red blood cells, adipocytes, and capillary tissue as assessed by phase contrast microscopy and Sudan black B staining. Dissociated and purified parathyroid cells were present as small clusters containing 5 to 20 cells.
The cells were then pelleted, resuspended in the same buffer lacking the ester, and incubated a further 15 min at 37°C. The cells were subsequently washed twice with PCB containing 0.5 mM CaCl2 and 0.5% BSA and maintained at room temperature (about 20°C). Immediately before use, the cells were diluted five-fold with prewarmed 0.5 mM CaCl2-PCB to obtain a final BSA concentration of 0.1%. The concentration of cells in the cuvette used for fluorescence recording was 1-2 x 10^6/ml.
The fluorescence of indicator-loaded cells was measured at 37°C in a spectrofluorimeter (Biomedical Instrumentation Group, University of Pennsylvania, Philadelphia, PA) equipped with a thermostated cuvette holder-and magnetic stirrer using excitation and emission wavelengths of 340 and 510 nm, respectively. […] Leakage of dye is dependent on temperature and most occurs within the first 2 min after warming the cells in the cuvette; dye leakage increases only very slowly thereafter. To correct the calibration for dye leakage, cells were placed in the cuvette and stirred at 37°C for 2-3 min. The cell suspension was then removed, the cells pelleted, and the supernatant returned to a clean cuvette. […] This estimate was subtracted from the apparent Fmin.

C-cell Ca^2+ receptor = biological target: T2, C-cell Ca^2+ receptor (Rattus norvegicus, UniProt P48442); conditions: spermine 10 mM, neomycin B 5 mM
T2 sequence (P48442 20-1079): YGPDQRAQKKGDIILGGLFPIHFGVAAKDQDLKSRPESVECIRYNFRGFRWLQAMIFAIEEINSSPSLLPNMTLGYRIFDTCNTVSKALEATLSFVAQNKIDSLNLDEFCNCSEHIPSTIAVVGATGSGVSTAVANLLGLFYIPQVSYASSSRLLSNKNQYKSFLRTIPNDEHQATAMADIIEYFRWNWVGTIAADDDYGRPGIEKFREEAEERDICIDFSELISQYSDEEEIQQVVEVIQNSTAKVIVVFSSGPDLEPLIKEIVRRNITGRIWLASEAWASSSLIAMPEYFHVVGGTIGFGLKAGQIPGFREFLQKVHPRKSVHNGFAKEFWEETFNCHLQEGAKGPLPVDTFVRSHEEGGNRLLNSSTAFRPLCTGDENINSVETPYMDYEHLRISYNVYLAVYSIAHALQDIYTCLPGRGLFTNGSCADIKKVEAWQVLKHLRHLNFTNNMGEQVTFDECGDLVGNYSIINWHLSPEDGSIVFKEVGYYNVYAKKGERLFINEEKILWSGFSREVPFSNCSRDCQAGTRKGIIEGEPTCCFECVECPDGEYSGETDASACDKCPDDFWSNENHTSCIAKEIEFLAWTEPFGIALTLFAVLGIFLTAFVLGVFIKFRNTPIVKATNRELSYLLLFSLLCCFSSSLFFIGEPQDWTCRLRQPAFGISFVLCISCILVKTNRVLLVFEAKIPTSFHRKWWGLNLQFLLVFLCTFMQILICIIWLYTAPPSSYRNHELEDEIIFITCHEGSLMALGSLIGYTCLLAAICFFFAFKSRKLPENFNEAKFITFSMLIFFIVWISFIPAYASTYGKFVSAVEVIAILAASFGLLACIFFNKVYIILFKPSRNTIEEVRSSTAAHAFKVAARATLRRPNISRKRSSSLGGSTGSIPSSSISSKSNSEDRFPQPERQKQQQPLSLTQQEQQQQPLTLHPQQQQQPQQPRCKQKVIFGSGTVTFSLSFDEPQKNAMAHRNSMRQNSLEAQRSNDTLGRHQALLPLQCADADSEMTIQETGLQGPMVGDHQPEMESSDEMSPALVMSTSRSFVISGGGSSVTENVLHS

human parathyroid cells = assay: PTH secretion from human parathyroid cells; conditions: at concentrations that caused mobilization of intracellular Ca2+, Fig. 13

## NC[C@@H]1O[C@H](O[C@H]2[C@@H](O)[C@H](O[C@@H]3[C@@H](O)[C@H](N)C[C@H](N)[C@H]3O[C@H]3O[C@H](CN)[C@@H](O)[C@H](O)[C@H]3N)O[C@@H]2CO)[C@H](N)[C@@H](O)[C@@H]1O [neomycin B]
[1]; human parathyroid cells from adenomatous tissue, Fig. 19
  pattern of change in [Ca2+]i: not only a transient but additionally a steady-state increase in [Ca^2+]i
[1]; tested
  increase in [Ca2+]i: large increase in [Ca^2+]i
C-cell Ca^2+ receptor
  effect on basal [Ca2+]i: without effect on basal [Ca^2+]i
Human parathyroid cells
  inhibition of PTH secretion: inhibited PTH secretion from human parathyroid cells

— patent publication EP0637237B1, “CALCIUM RECEPTOR-ACTIVE MOLECULES” (BRIGHAM AND WOMEN'S HOSPITAL, INC., priority 1993, dated 1994)
